Measurements reported in patent publication US20170296668A1, “METHODS OF INCREASING SOLUBILITY OF POORLY SOLUBLE COMPOUNDS AND METHODS OF MAKING AND USING FORMULATIONS OF SUCH COMPOUND” (VIZURI HEALTH SCIENCES LLC, priority 2009, published 2017).
Like-named read-outs stand apart in the source and are kept apart here.

How the values were obtained:
[1] = Solubility in PEG 400 / PEG 300 via thermal treatment process; details: for Flavonoid in Solvent -: PEG-400, HPLC, thermal treatment concentrate; for Jordi PEG400 Results / PEG400 Sol. Conc.: Table III
Procedure: • The objective of this work was to quantify a total of six different flavonoids in PS80 and PEG-400. The samples were also analyzed qualitatively to look for signs of degradation of the solvents due to the elevated temperatures required of the thermal treatment process. • This project was divided into three distinct phases: method validation/development, quantitation of the individual flavones, and qualitative analysis to look for signs of PS80/PEG400 degradation.

[2] = Boiling of flavonoid in H2O & PS80 slurry; format: physicochemical; details: 2. H2O & PS80 slurry boiled; for solubility: water and polysorbate 80 slurry, aqueous with cosolvent or surfactant or cyclodextrin, thermodynamic from solid, read-out: SOLUBLE CONC. RANGE
[3] = Solubility in Polysorbate 80 via thermal treatment process; details: for Prepared Thermal Treatment Concentration in Polysorbate 80: Table XV; for solubility: polysorbate 80, organic solvent or mixture, thermodynamic from solid; for PS80 Sol. Conc. - / Jordi PS800 Results: Table III; for Flavonoid in Solvent -: PS80, HPLC, thermal treatment concentrate
Procedure: The concentration of apigenin in A/PS80 was measured by HPLC-MS.

[4] = cited from earlier work; for Lit. H2O Sol. -: Table III; for WATER SOLUBILITY (mg/ml): saturation concentrations, published sources
[5] = Aqueous solution clarity: water added to concentrate vs non-concentrate method
Procedure: (§1) The concentrates were added to water and their aqueous solution characteristics noted.

[6] = Solubility in Ceteareth-20 via thermal treatment process; details: thermal treatment >200° C.
[7] = Solubility of concentrates in oil solvents; format: physicochemical
Source text: Borage oil was obtained from Sigma-Aldrich (St. Louis, Mo.) and Mineral Oil, USP, Canola Oil and Jojoba Oil from Spectrum Chemical of New Brunswick, N.J.

[8] = Nonoxynol-9 concentrates via thermal treatment process; format: physicochemical; details: Table XVI
Procedure: as §1

[9] = Supersaturation test by addition of a crystal
EpiDerm tissue = format: cell-based; details: time to reduce tissue viability to 50%; unaudited values
Procedure: • The purpose of this study was to compare the acute dermal irritation potential of 5 Apigenin containing formulations using the Epiderm MTT ET50 assay. The time required for a test article to reduce tissue viability to 50%, i.e. ET50, correlates well with the traditional in vivo rabbit skin irritation test • This study was conducted at MB Research Laboratories (Spinnerstown, Pa. to conduct the EpiDerm MTT Assay. EpiDerm tissue was incubated with Api Genesis formulations for 1, 4 and 24 hours (two tissues per time point for each test article). Triton X-100, 1%, was used as positive control. After incubation, the tissues were rinsed to remove test articles and cytotoxicity was determined with MTT dye [3-(4, 5-Dimethylthiazol-2-yl)-2, 5-diphenyltetrazolium bromide, Thiazolyl blue]. Only viable cells are capable of enzymatic reduction of MTT into a purple formazan product that is quantitatively measured following extraction from the tissue.

[10] = PS80, 1. Thermal Treatment method

**Q.** What does the source list for `COc1ccc([C@@H]2CC(=O)c3c(O)cc(O[C@@H]4O[C@H](CO[C@@H]5O[C@@H](C)[C@H](O)[C@@H](O)[C@H]5O)[C@@H](O)[C@H](O)[C@H]4O)cc3O2)cc1O` [Hesperidin]?
**A.** Molar Ratio PEG400/API (mole/mole) [1]: 21.2 mole/mole; Flavonoid in Solvent - [1]: 81.0 ± 8.0 mg/mL; Jordi PEG400 Results ([1]; thermal treatment): 81 mg/mL; SOLUBLE CONC. RANGE [2]: < 10 mg/mL; SOLUBLE CONC. RANGE (% wt/wt) [2]: < 1%; SOLUBLE CONC. RANGE [3, 10]: < 20 mg/mL; Lit. H2O Sol. - [4]: 0.05 to 3 mg/mL; WATER SOLUBILITY (mg/ml) [4]: from 0.05 to 3 mg/ml

**Q.** With `O=c1cc(-c2ccc(O)c(O)c2)oc2cc(O)cc(O)c12` [Luteolin, 3′,4′,5,7-tetrahydroxyflavone] as the compound, how does the “non-concentrate method: compound, nonoxynol-9 and 17 ml water heated to near boiling, cooled” value [5] read?
**A.** Its value is “did precipitate”.

**Q.** What about the “Comments when 17 ml of H2O was added to 3 gms of the concentrate” value (shortened to “Comments when 17 ml of H2O was added”) ([5]; Nonoxynol-9 concentrate) of the same compound?
**A.** Its value is “A clear soln formed”.

**Q.** And the “non-concentrate method: compound, polysorbate 80 and 17 ml water heated to near boiling, cooled” value [5]?
**A.** Its value is “did precipitate”.

**Q.** What about the “Comments when 17 ml of H2O was added” value ([5]; Polysorbate 80 concentrate) of the same compound?
**A.** The value was “A clear soln formed”.

**Q.** And the “Conc. In Ceteareth-20” value [6]?
**A.** The value was roughly 10000 µg/mL.

**Q.** And the “Molar Ratio PEG400/API (mole/mole)” value [1]?
**A.** Its value is 11.1 mole/mole.

**Q.** What about the “Flavonoid in Solvent -” value [1] of the same compound?
**A.** The value was 72.5 mg/mL.

**Q.** What about the “Jordi PEG400 Results” value ([1]; thermal treatment) of the same compound?
**A.** The value was 72.5 mg/mL.

**Q.** What about the “PEG400 Sol. Conc.” value ([1]; thermal treatment) of the same compound?
**A.** Its value is 70 to 90 mg/mL.

**Q.** What about the “SOLUBLE CONC. RANGE (% wt/wt)” value [2] of the same compound?
**A.** The value was no more than 5%.

**Q.** And the solubility [2]?
**A.** The solubility was no more than 50 mg/mL.

**Q.** What about the “SOLUBLE CONC. RANGE (% wt/wt)” value [3, 10] of the same compound?
**A.** Its value is greater than 8%.

**Q.** What about the “Prepared Thermal Treatment Concentration in Polysorbate 80” value [3] of the same compound?
**A.** Its value is 50 mg/mL.

**Q.** What about the solubility [3] of the same compound?
**A.** The solubility was greater than 80 mg/mL.

**Q.** And the “PS80 Sol. Conc. -” value ([3]; thermal treatment)?
**A.** Its value is greater than 80 mg/mL.

**Q.** What about the “Lit. H2O Sol. -” value [4] of the same compound?
**A.** Its value is 0.38 mg/mL.

**Q.** And the “Literature Solubility in H2O @ 25° C.” value ([4]; Table XV)?
**A.** The value was 0.14 mg/mL.

**Q.** And the “Literature Solubility in H2O @ 25° C.” value ([4]; Table XVI)?
**A.** Its value is 0.14 mg/mL.

**Q.** And the “solubility in the test oils” value ([7]; mineral, jojoba, canola, borage oils)?
**A.** The value was “insoluble”.

**Q.** What about the “concentration of concentrate in polyglyceryl-4 oleate” value ([7]; room temperature) of the same compound?
**A.** Its value is 10000 µg/mL.

**Q.** What about the “Prepared Thermal Treatment Concentration in Nonoxynol-9” value [8] of the same compound?
**A.** Its value is 50 mg/mL.

**Q.** With `Cc1cccc(Nc2ccccc2C(=O)O)c1C` [Mefenamic Acid, reference compound] as the compound, how does the “non-concentrate method: compound, nonoxynol-9 and 17 ml water heated to near boiling, cooled” value [5] read?
**A.** Its value is “did precipitate”.

**Q.** What about the “Comments when 17 ml of H2O was added” value ([5]; Nonoxynol-9 concentrate) of the same compound?
**A.** The value was “A clear soln formed”.

**Q.** What about the “PEG400 Solubility: behaviour when H2O was added” value ([5]; PEG400 solution + H2O) of the same compound?
**A.** Its value is “Nost Mefenamic Acid ppt. out when H2O was added”.

**Q.** What about the “PS80 Solubility: behaviour when H2O was added” value ([5]; PS80 solution + H2O) of the same compound?
**A.** The value was “Nost Mefenamic Acid dissolved when H2O was added”.

**Q.** And the “non-concentrate method: compound, polysorbate 80 and 17 ml water heated to near boiling, cooled” value [5]?
**A.** Its value is “did precipitate”.

**Q.** And the “Comments when 17 ml of H2O was added” value ([5]; Polysorbate 80 concentrate)?
**A.** The value was “A clear soln formed”.

**Q.** What about the “PEG400 Solubility: amount solubilized, remained solubilized @ Room Temp.” value ([1]; thermal treatment) of the same compound?
**A.** Its value is 1 wt %.

**Q.** And the “Prepared Thermal Treatment Concentration in Polysorbate 80” value [3]?
**A.** The value was 10 mg/mL.

**Q.** And the “PS80 Solubility: amount solubilized, remained solubilized @ Room Temp.” value ([3]; thermal treatment)?
**A.** Its value is 1 wt %.

**Q.** What about the “Literature Solubility in H2O @ 25° C.” value ([4]; Table XV) of the same compound?
**A.** The value was 0.004 mg/mL.

**Q.** What about the “Literature Solubility in H2O @ 25° C.” value ([4]; Table XVI) of the same compound?
**A.** The value was 0.004 mg/mL.

**Q.** And the “PEG400 Solubility: supersaturation” value ([9]; PEG400 solution)?
**A.** The value was “Not Sup. Sat”.

**Q.** What about the “PS80 Solubility: supersaturation” value ([9]; PS80 solution) of the same compound?
**A.** The value was “Not Sup. Sat”.

**Q.** What about the “Prepared Thermal Treatment Concentration in Nonoxynol-9” value [8] of the same compound?
**A.** The value was 10 mg/mL.

**Q.** What does the source list for `O=c1c(O)c(-c2ccc(O)c(O)c2)oc2cc(O)cc(O)c12` [Quercetin]?
**A.** Conc. In Ceteareth-20 [6]: ~10000 µg/mL; PEG400 Sol. Conc. ([1]; thermal treatment): 60 to 80 mg/mL; SOLUBLE CONC. RANGE (% wt/wt) [2]: <<7%; SOLUBLE CONC. RANGE (% wt/wt) [3, 10]: > 7%; Flavonoid in Solvent - [3]: 65.0 mg/mL; solubility [3]: > 70 mg/mL; Jordi PS800 Results ([3]; thermal treatment): 65 mg/mL; PS80 Sol. Conc. - ([3]; thermal treatment): >80 mg/mL; Lit. H2O Sol. - [4]: <1 mg/mL; WATER SOLUBILITY (mg/ml) [4]: *<1 mg/ml; supersaturation in Ceteareth-20 ([9]; Room Temp.): solubilization. Not Super Saturated at Room Temp. via

**Q.** What does the source list for `Oc1ccc(C=Cc2cc(O)cc(O)c2)cc1` [Resveratrol]?
**A.** PEG400 Sol. Conc. ([1]; thermal treatment): 80 to 100 mg/mL; SOLUBLE CONC. RANGE (% wt/wt) [3, 10]: > 8%; Flavonoid in Solvent - [3]: 127.5 mg/mL; solubility [3]: > 80 mg/mL; Jordi PS800 Results ([3]; thermal treatment): 127.5 mg/mL; PS80 Sol. Conc. - ([3]; thermal treatment): >80 mg/mL; WATER SOLUBILITY (mg/ml) [4]: *0.1 to 0.3 mg/ml

**Q.** With `C[C@@H]1O[C@@H](OC[C@H]2O[C@@H](Oc3c(-c4ccc(O)c(O)c4)oc4cc(O)cc(O)c4c3=O)[C@H](O)[C@@H](O)[C@@H]2O)[C@H](O)[C@H](O)[C@H]1O` [Rutin] as the compound, how does the solubility [2] read?
**A.** The solubility was less than 15 mg/mL.

**Q.** What about the “SOLUBLE CONC. RANGE (% wt/wt)” value [3, 10] of the same compound?
**A.** Its value is less than 1%.

**Q.** And the “Flavonoid in Solvent -” value [3]?
**A.** The value was 14.3 mg/mL.

**Q.** What about the solubility [3] of the same compound?
**A.** Its solubility is less than 10 mg/mL.

**Q.** With Triton X-100 as the compound, how does the “ET50” value (EpiDerm tissue) read?
**A.** Its value is 5.9 h.
